# Measurements as given in patent publication US7232839B2, “Benzoisothiazolone compositions” (L'Oreal, priority 2004, dated 2007).
# Experiments:
# [1] = tested on: immortalized human sebocytes in culture, derived from the SZ95 line; assay: Lipogenesis test: lipid content of sebocytes in culture by Nile red fluorescence; assay type: cell-based; conditions: for LIPID VARIATION (relative to the control): treatment for 2 days, neutral lipids, Nile red
# Description: The activity of the compounds (2c) and (1e) described above was tested on a model of immortalized human sebocytes in culture, derived from the SZ95 line described in Zouboulis, C. C., Seltmann, H., Neitzel, H. & Orfanos, C. E., Establishment and Characterization of an Immortalized Human Sebaceous Gland Cell Line, J. Invest. Dermatol., 113, 1011–1020 (1999).
# The test consisted in measuring the amount of lipids produced by the sebocytes of the line (at confluence), in the presence or absence of an active agent, diluted in DMSO, such that the final amount of DMSO in the culture medium is 0.1%. After treatment for 2 days, the adherent cells are treated with Nile red (1 μg/ml). The lipid content is then quantified by measuring the fluorescence of the dye (excitation/emission couple: 485–540 nm for the neutral lipids).
# The tests are performed in sextuplicate and the experiment is repeated four times.
# [2] = tested on: immortalized human sebocytes in culture, derived from the SZ95 line; assay: Proliferation tests (MUH) and cell viability tests (LDH) run in parallel; assay type: cell-based
# Excerpt: In parallel, proliferation tests (MUH) and cell viability tests (LDH) make it possible to check that the, effects obtained are not associated with an appreciable change in these biological parameters.
Structure (SMILES),LIPID VARIATION (relative to the control) ([1]; concentration 10^−4 M),LIPID VARIATION (relative to the control) ([1]; concentration 10^−6 M),Proliferation/cytotoxicity ([2]; concentration 10^−4 M),Proliferation/cytotoxicity ([2]; concentration 10^−6 M),"increase in the lipid content of the sebum ([1]; concentration 10^−5 M, same test)"
"O=C1c2c(O)cccc2S(=O)(=O)N1c1ccccc1 [(1e), 4-hydroxy-2-phenyl-1,2-benzisothiazol-3(2H)-one 1,1-dioxide]",+39%,+16%,no,no,–
"COc1ccc(N2C(=O)c3c(OC)cccc3S2(=O)=O)cc1 [(2c), 4-methoxy-2-(4-methoxyphenyl)-1,2-benzisothiazol-3(2H)-one 1,1-dioxide]",–,+43%,–,no,–
"C[C@]12CC[C@H](O)CC1=CC[C@@H]1[C@@H]2CC[C@]2(C)C(=O)CC[C@@H]12 [DHEA, reference compound]",–,–,–,–,13%
